Data: US9546157B2, “Asymmetric piperidinyl-substituted ureas as medicines” (Helsinn Healthcare SA, priority 2014, dated 2017)
“Also recorded” adds a separate entry of the source.

What was measured:
GHSR1a [1] = biological target: T1, GHSR1a (Homo sapiens, UniProt Q92847); test: Calcium FLIPR assay, GHSR-1a antagonism (reduction of ghrelin response); format: cell-based; conditions: HEK293/GHSR1a cells, ghrelin 10 nM
T1 construct: expressed in transfected cells; host or cells: HEK293
Procedure, shortened: (§1)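 Calcium flux measured by FLIPR in GHSR1a-expressing HEK293 cells after 30-60 min dye preloading. Compound was added at t=20 sec, alone for agonism or with ghrelin (10 nM) for antagonism, and fluorescence recorded for 2 minutes. EC50 and IC50 were estimated from dose-response data.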

C57BL/6J mice = test: Food intake test in mouse (GHSR1a antagonists); format: in vivo; conditions: for inhibition in vivo at 30 mg/kg / inhibition in vivo at 10 mg/kg: Mus musculus, po
Procedure, shortened: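 Male C57BL/6J mice (18-22 g) were fasted overnight (16 h before dosing), then randomized by body weight to vehicle or test agent (n=6 each). Cumulative food intake was measured at 1, 2, 4, 8 and 24 hrs post-dose as premeasured food minus uneaten food.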

[2] = Metabolic Stability (M = Mouse); format: in vitro ADME
[3] = test system: Marchigian Sardinian alcohol-preferring (msP) rats; test: Operant ethanol self-administration in msP rats; format: in vivo, rat; conditions: for operant responding for alcohol (10% ethanol self-administration), overall: oral 1 h before 30-min session, all doses tested (H0847 1, 3; H0816 3, 10; H0900 and H0860 3, 30 mg/kg)
Description: Training continued until stable baseline of alcohol responding was achieved. At this point, before initiation of treatments, rats were trained to gavage administration procedures for three consecutive days (pre-treatment phase) during which they received drug vehicle. At this point animals were tested for the effect of ghrelin antagonists on 10% (v/v) ethanol self-administration. Using a within-subject Latin square design, the first group of msP rats (N=12) was tested for the effect of H0847 (0.0, 1.0 and 3.0 mg/kg), while the second (N=12) was treated with H0816 (0.0, 3.0 and 10.0 mg/kg).
Once the experiment was finished, animals were left in their home cages for several days, in order to wash out the drugs. Then, the same rats were employed to test the remaining ghrelin antagonists compounds H0900 (0.0, 3.0 and 30.0 mg/kg) and H0860 (0.0, 3.0 and 30.0 mg/kg). Once a stable self-administration baseline was reached, treatments begun according to the same experimental procedures described for the previous drugs tested.
All the drugs (or vehicles) were administered orally 1 hour before the beginning of the operant session.
Male genetically selected alcohol-preferring Marchigian Sardinian (msP) rats were used (N=24). At the time of the experiments their body weight ranged between 350 and 400 g. They were housed 4 per cages in a room with a reverse 12:12 h light/dark cycle (lights off at 9:30 a.m.), temperature of 20-22° C. and humidity of 45-55%. Rats were offered free access to tap water and food pellets (4RF18, Mucedola, Settimo Milanese, Italy). All the procedures were conducted in adherence with the European Community Council Directive for Care and Use of Laboratory Animals and the National Institutes of Health Guide for the Care and Use of Laboratory Animals.
75 mg of each H0900 and H0860 were accurately weighed and suspended in 10 ml of 0.5% carboxymethyl cellulose sodium salt solution (CMC, Sigma-Aldrich Cat. C4888, lot 120M0216V). The lower dose solution was prepared by dilution of 30 mg/ml suspension with 0.5% CMC solution.
37.5 mg of H0816 were accurately weighed and suspended in 15 ml of 0.5% carboxymethyl cellulose sodium salt solution (CMC, Sigma-Aldrich Cat. C4888, lot 120M0216V). The lower dose solution was prepared by dilution of mg/ml suspension with 0.5% CMC solution.
11.25 mg of H0847 were accurately weighed and suspended in 15 ml of 0.5% carboxymethyl cellulose sodium salt solution (CMC, Sigma-Aldrich Cat. C4888, lot 120M0216V). The lower dose solution was prepared by dilution of mg/ml suspension with 0.5% CMC solution.
Suspensions were prepared freshly on test day. Vehicle was composed of a solution of 0.5% carboxymethyl cellulose sodium salt and was prepared by dissolving 1 g of CMC in 200 ml of distilled water. Vehicle and drugs were administered by gavage in a volume of 4 ml/kg of body weight 1 hour before the access to 10% alcohol solution. 10% (v/v) ethanol solution was prepared every two days by diluting 95% (v/v) ethanol solution (F.L. CARSETTI s.n.c-CAMERINO) in drinkable water.
The self-administration stations consisted of operant conditioning chambers (Med Associate, Inc) enclosed in sound-attenuating, ventilated environmental cubicles. Each chamber was equipped with a drinking reservoir (volume capacity: […]) positioned 4 cm above the grid floor in the centre of the front panel of the chamber, two retractable levers located 3 cm (one to the right and the other to the left) of the drinking receptacle and a white cue light located 6 cm above the lever. […] An IBM-compatible computer controlled the delivery of fluids (activation of syringe pump), presentation of visual stimuli and recording of the behavioral data.
Using operant self-administration chambers (Med Associates), msP rats were trained to lever press for 10% alcohol (v/v) until stable baseline of responding were achieved. 16 self-administration training sessions were carried out to train the animals. […]

[4] = Metabolic Stability (H = Human); format: in vitro ADME
GHSR1a [5] = biological target: T1, GHSR1a; test: Calcium FLIPR assay, GHSR-1a agonism; format: cell-based; conditions: HEK293/GHSR1a cells
Procedure, shortened: as §1

[6] = 3 mg/kg oral 1 h before session
[7] = 30 mg/kg oral 1 h before session

T1 sequence (Q92847 whole entry): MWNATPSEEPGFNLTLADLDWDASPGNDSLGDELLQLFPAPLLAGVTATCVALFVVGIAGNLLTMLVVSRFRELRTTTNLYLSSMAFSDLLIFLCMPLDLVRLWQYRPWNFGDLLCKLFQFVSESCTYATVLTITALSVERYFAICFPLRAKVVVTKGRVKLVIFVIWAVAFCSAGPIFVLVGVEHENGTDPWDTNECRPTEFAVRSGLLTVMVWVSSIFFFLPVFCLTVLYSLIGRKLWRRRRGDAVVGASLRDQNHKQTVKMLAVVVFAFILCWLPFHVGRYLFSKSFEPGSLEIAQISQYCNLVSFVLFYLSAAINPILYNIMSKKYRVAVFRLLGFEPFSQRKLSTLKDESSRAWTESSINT

In the case of `C[C@H](NC(=O)N(C)C1CCN(C)CC1)c1ccc(-c2cncc(F)n2)c(Cl)c1Cl` [Compound H0847, (S)-3-(1-(2,3-dichloro-4-(6-fluoropyrazin-2-yl)phenyl)ethyl)-1-methyl-1-(1-methylpiperidin-4-yl)urea], the IC50 (GHSR1a [1]) is reported as 2 nM, the “Mouse Food Intake, result in words” value (C57BL/6J mice; PO 10 mg/kg + ANA (ANAM) 30 mg/kg mice) is reported as “PO 10 mg/kg + ANA 30 mg/kg mice: NSE” and the “Metabolic Stability M” value [2] is reported as “High H High M”. For the same compound, the “operant responding for alcohol (10% ethanol self-administration), overall” value [3] was “had no effect on operant responding for alcohol; also recorded: had no effect on ethanol responses”, the “Metabolic Stability H” value [4] was “High H High M” and the EC50 (GHSR1a [5]) was greater than 30000 nM.

In the case of `C[C@H](NC(=O)N(C)C1CCN(C)CC1)c1ccc(-c2cnccn2)c(Cl)c1Cl` [Compound H0816, (S)-3-(1-(2,3-dichloro-4-(pyrazin-2-yl)phenyl)ethyl)-1-methyl-1-(1-methylpiperidin-4-yl)urea], the IC50 (GHSR1a [1]) is reported as 5.1 nM, the inhibition in vivo at 30 mg/kg (C57BL/6J mice; 30 mg/kg PO fasted mice, time not given) is reported as 12% and the “operant responding for alcohol (10% ethanol self-administration), overall” value [3] is reported as “had no effect on operant responding for alcohol; also recorded: had no effect on ethanol responses”. It also gave an EC50 (GHSR1a [5]) greater than 30000 nM.

For `CC[C@H](NC(=O)N(C)C1CCN(C)CC1)c1ccc(-c2cnccn2)c(Cl)c1Cl` [Compound H0860, (S)-3-(1-(2,3-dichloro-4-(pyrazin-2-yl)phenyl)propyl)-1-methyl-1-(1-methylpiperidin-4-yl)urea], the IC50 (GHSR1a [1]) was 3 nM, the inhibition in vivo at 10 mg/kg (C57BL/6J mice; 1 h, PO 10 mg/kg + ANA 30 mg/kg mice) was 68% and the “Metabolic Stability M” value [2] was “High H High M”. For the same compound, the “alcohol self-administration, post hoc” value [3, 6] was “only the higher dose (30 mg/kg) reduced ethanol self-administration”, the “alcohol self-administration, post hoc” value [3, 7] was “significant reduction of alcohol self-administration” and the “operant responding for alcohol (10% ethanol self-administration), overall” value [3] was “significantly reduced operant responding for alcohol; also recorded: statistically significant decrease in ethanol self-administration”. The “Metabolic Stability H” value [4] was “High H High M” and the EC50 (GHSR1a [5]) was greater than 30000 nM.

For `CN1CCC(N(C)C(=O)N[C@H](c2ccc(-c3cnccn3)c(Cl)c2Cl)C(F)(F)F)CC1` [Compound H0900, (R)-3-(1-(2,3-dichloro-4-(pyrazin-2-yl)phenyl)-2,2,2-trifluoroethyl)-1-methyl-1-(1-methylpiperidin-4-yl)urea], the IC50 (GHSR1a [1]) was 3 nM, the inhibition in vivo at 10 mg/kg (C57BL/6J mice; 1 h, PO 10 mg/kg + ANA 30 mg/kg fed mice) was 60% and the inhibition in vivo at 30 mg/kg (C57BL/6J mice; 1 h, PO 30 mg/kg + ANA 30 mg/kg fed mice) was 91%. For the same compound, the inhibition in vivo at 30 mg/kg (C57BL/6J mice; 1 h, PO 30 mg/kg fasted mice) was 26%, the inhibition in vivo at 30 mg/kg (C57BL/6J mice; 1 h, PO 30 mg/kg fed mice) was 90% and the “Metabolic Stability M” value [2] was “High”. The “alcohol self-administration, post hoc” value [3, 6] was “significant reduction of alcohol self-administration”, the “alcohol self-administration, post hoc” value [3, 7] was “significant reduction of alcohol self-administration” and the “operant responding for alcohol (10% ethanol self-administration), overall” value [3] was “significantly reduced operant responding for alcohol; also recorded: statistically significant decrease in ethanol self-administration”. The “Metabolic Stability H” value [4] was “Medium” and the EC50 (GHSR1a [5]) was greater than 30000 nM.
